Like-named read-outs stand apart in the source and are kept apart here.
Assays:
[1] = molecular target: T1, GL-7ACA acylase J1 of Bacillus laterosporus J1 (SEQ ID NO: 3), purified from recombinant E. coli (Brevibacillus laterosporus, UniProt Q45289); assay: biochemical; conditions: for Relative activity (%): enzyme treated 37° C. 3 hours in 0.1 M Tris-HCl (pH 8), residual activity vs blank-treated enzyme, substrate GL-7ACA
Protocol: Effect of p-chloromercuribenzoate (pCMB, Sigma Chemical Co., Ltd.), phenylmethylsulfonyl fluoride (PMSF, Sigma) and ethylenediaminetetraacetic acid (EDTA, Nacalai Tesque Inc., Japan) on the activity of GL-7ACA acylase J1 was examined as follows. Eleven μg of GL-7ACA acylase J1 was treated at 37° C. for 3 hours with 1.0 or 5.0 mM pCMB, 1.0 or 5.0 mM PMSF, or 1.0 or 5.0 mM EDTA in 200 μl of 0.1 M Tris-HCl buffer (pH 8). Residual activity of the treated enzyme was assayed by adding 22 μl of GL-7ACA (20 mg/ml) as a substrate to the mixture. The reaction was performed at 37° C for 10 min. Residual activity was expressed as a percentage compared to the activity of the enzyme treated with blank solution.

[2] = molecular target: T1, GL-7ACA acylase J1 of Bacillus laterosporus J1 (SEQ ID NO: 3), purified from recombinant E. coli; assay: Inhibition by reaction products (competitive), Ki determination by HPLC assay; format: biochemical; conditions: substrate GL-7ACA, 37° C.
Protocol: Inhibitory activity of reaction products, namely 7-ACA and glutaric acid on the enzyme activity of GL-7ACA acylase J1 was examined. The enzyme activity was assayed in the presence of various concentrations of 7-ACA or glutaric acid. For determination of Ki of 7-ACA, reaction mixture (200 μl) containing 20 μmole of glycine buffer (pH 9), 0.39-2.0 μmole of GL-7ACA, 0.3-0.48 μmole of 7-ACA and 11 μg of enzyme was used and the reaction was performed at 37° C. for 6 min. For determination of Ki of glutaric acid, reaction mixture (200 μl) containing (a) 20 μmole of glycine buffer (pH 9), 0.26-3.0 μmol of GL-7ACA, 2-10 μmol of glutaric acid and 11 μg of the enzyme (b) 20 μmol of Tris-HCl buffer (pH 8), 0.05-1.0 μmol of GL-7ACA, […] of glutaric acid and 5 μg of the enzyme was used. The reaction was performed at 37° C. for 3 min. […] Ki values were calculated from the apparent Michaelis constants (Kmapp), Km and Vmax. Ki values of 7-ACA was 2.0 mM.

[3] = tested on: CC(=O)OCC1=C(C(=O)O)N2C(=O)C(NC(=O)CCCC(=O)O)[C@H]2SC1; assay: Michaelis-Menten kinetics of GL-7ACA hydrolysis, HPLC assay, Lineweaver-Burk plot; format: biochemical, Bacillus laterosporus J1; conditions: 37° C., 2 min
Protocol: Transformant colonies were picked up and grown overnight at 30° C. in 1 ml of 2% Bouillon (Eiken Chemical Co., Ltd., Japan) supplemented with 1 mM […] (IPTG; Sigma Chemical Co., Ltd., U.S.A.). Cells were harvested by centrifugation and resulting cell pellets were used for assay. Reaction mixture (200 μl ) containing 100 mM phosphate buffer (pH 8), 2 mg of GL-7ACA and cell pellets were thoroughly mixed and incubated for 10 min at 37° C. The reaction was terminated by the addition of 200 μl of 4% acetic acid. Samples were applied to a Inertsil ODS-2 column (4.6 mm × 150 mm) (Gasukuro Kogyo Co., Ltd., Japan) and elution was performed with 0.567 g/l of Na2 HPO4, 0.36 g/l of KH2 PO4 and 2-4% methanol. 7ACA was detected with absorption at 254 nm.
The activity of the GL-7ACA acylase J1 was determined by HPLC assay. […] Specific enzyme activity was expressed as unit per mg of protein. Protein concentrations were determined by Bio-Rad protein assay kit (Bio-Rad Co., Ltd., U.S.A.) with bovine serum albumin as a standard. Maximum specific enzyme activity (Vmax) and Michaelis constant (Km) were calculated from slope and intersection which were obtained by Lineweaver-Burk plot (Cf. M. Dixon and E. C. Webb, Enzymes, Longmans, London, 1958). […]

[4] = pH 8, read-out: Relative activity (%)

T1 sequence (Q45289 entry or part of it): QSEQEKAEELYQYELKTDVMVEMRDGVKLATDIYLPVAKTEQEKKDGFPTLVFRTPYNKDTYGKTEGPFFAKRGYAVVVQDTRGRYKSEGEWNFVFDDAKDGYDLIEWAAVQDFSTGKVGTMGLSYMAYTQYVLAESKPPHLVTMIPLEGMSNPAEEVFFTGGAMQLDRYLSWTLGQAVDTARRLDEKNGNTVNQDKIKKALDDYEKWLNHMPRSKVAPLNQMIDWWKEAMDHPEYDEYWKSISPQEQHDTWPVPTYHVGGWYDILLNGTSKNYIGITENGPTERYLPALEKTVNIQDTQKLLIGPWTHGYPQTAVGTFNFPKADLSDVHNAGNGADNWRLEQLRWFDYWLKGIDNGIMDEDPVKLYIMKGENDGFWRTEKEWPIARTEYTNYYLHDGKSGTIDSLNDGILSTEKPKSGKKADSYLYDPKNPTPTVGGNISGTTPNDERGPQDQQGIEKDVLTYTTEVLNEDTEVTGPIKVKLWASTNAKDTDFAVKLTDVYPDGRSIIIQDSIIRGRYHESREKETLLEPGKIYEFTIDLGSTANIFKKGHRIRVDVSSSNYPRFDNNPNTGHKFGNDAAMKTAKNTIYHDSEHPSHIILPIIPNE

With O=C(O)c1cc[c]([Hg][Cl])cc1 [pCMB, p-chloromercuribenzoate] the “Relative activity (%)” value ([1]; inhibitor 1 mM) was 106% and the “Relative activity (%)” value ([1]; inhibitor 5 mM) was 104%.
For O=S(=O)(F)Cc1ccccc1 [PMSF, phenylmethylsulfonyl fluoride], the “Relative activity (%)” value ([1]; inhibitor 1 mM) was 90% and the “Relative activity (%)” value ([1]; inhibitor 5 mM) was 78%.
In the case of O=C(O)CCCC(=O)O [glutaric acid], the Ki ([2]; 0.1M Tris-HCl buffer (pH 8), 3 min, read-out: Ki of glutaric acid) is reported as 990 µM and the Ki ([2]; 0.1M glycine buffer (pH 9), 3 min, read-out: Ki of glutaric acid) is reported as 53000 µM.
O=C(O)CN(CCN(CC(=O)O)CC(=O)O)CC(=O)O [EDTA, ethylenediaminetetraacetic acid] was tested, and the activity at 1000 µM [1, 4] was 100% and the activity at 5000 µM [1, 4] was 102%.
Work on “GL-7ACA acylase J1 of Bacillus laterosporus J1 (SEQ ID NO: 3), purified from recombinant E. coli (Brevibacillus laterosporus)” yielded a Km ([3]; other: 100 mM Tris-HCl buffer (pH 8), 0.16-5 mM GL-7ACA, pH 8.0) of 140 µM and a Km ([3]; other: 100 mM glycine buffer (pH 9), 1.4-20 mM GL-7ACA, pH 9.0) of 3200 µM.
CC(=O)OCC1=C(C(=O)O)N2C(=O)C(N)C2SC1 (centres unmarked) [7-ACA, 7-aminocephalosporanic acid] gave a Ki ([2]; glycine buffer (pH 9), 6 min, read-out: Ki of 7-ACA) of 2000 µM.
